Measurements as given in EP0079489A1, “Methotrexate-labeled iodothyronine conjugates and method, reagent means and test device for the determination of iodothyronine in or iodothyronine uptake of a liquid sample” (MILES LABORATORIES, INC., priority 1981, dated 1983).

Experiments:
[1] = target: T1, bovine liver dihydrofolate reductase (Bos taurus, UniProt P00376); test: Inhibition of dihydrofolate reductase by the labeled conjugate (Example 1C); type: biochemical; details: for ΔA340/20 Min: 37°C, without conjugate 0.645
T1 construct: bovine liver dihydrofolate reductase (Sigma Chemical Co., St. Louis, MO); purchased Sigma Chemical Co., St. Louis, MO; host or cells: bovine liver
T1 sequence (P00376 1-187): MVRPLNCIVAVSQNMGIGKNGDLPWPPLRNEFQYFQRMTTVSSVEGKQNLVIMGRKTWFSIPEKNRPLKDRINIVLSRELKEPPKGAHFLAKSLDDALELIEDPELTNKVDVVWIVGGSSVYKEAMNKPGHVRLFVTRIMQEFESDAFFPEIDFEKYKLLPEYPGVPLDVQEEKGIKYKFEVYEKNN
Description: (§1) The standard assay consisted of 0.10 mM dihydrofolate (DHF), 0.10 mM NADPH, 0.001 unit/bovine liver dihydrofolate reductase (Sigma Chemical Co., St. Louis, MO) and 0.1 M sodium phosphate (pH 6.0) in a final volume of 2.0 ml. The reaction mixture without dihydrofolate was incubated at 37°C for 5 minutes, then the reaction was initiated by adding dihydrofolate, and an initial absorbance at 340 nm was recorded with a Gilford 250 spectrophotometer (Gilford Instrument Laboratories, Oberlin, OH). The reaction was allowed to proceed for 20 minutes at 37°C and then a final reading was recorded. The enzyme activity was expressed as the change in absorbance (AA) at 340 nanometers (nm) that occurred during the 20 minute (min) reaction.
Various concentrations of methotrexate-aminobutylthroxine conjugate were incubated with the standard concentrations of NADPH, dihydrofolate reductase and buffer for 5 minutes at 37°C. The reaction was initiated as discussed above with the addition of dihydrofolate.

[2] = system: Antibody to Thyroxine; test: Titration of antibody to thyroxine with the labeled conjugate, dihydrofolate reductase activity read-out (Example 1D); type: binding; details: 75 µl of 0.16 µM conjugate (6 nM)
Description: as §1
Various concentrations of antibody to thyroxine and the standard concentrations of NADPH, 6 nM methotrexate-aminobutylthyroxine and buffers were incubated for 2 minutes at room temperature. Dihydrofolate reductase was then added, and the incubation was continued for 5 minutes at 37°C. The enzyme catalyzed reaction was initiated by addition of dihydrofolate and monitored as described above.

[3] = system: Antibody to Thyroxine; test: Competitive binding assay for thyroxine, dihydrofolate reductase activity read-out (Example 1E); details: 100 µl of 0.16 µM conjugate
Description: as §1
The standard concentrations of NADPH, buffer, antibody to thyroxine and various concentrations of thyroxine were incubated at room remperature for a minimum of 30 seconds. Then 100 µl of […] methotrexate-aminobutylthyroxine was added and the mixture was incubated at room temperature for 2 minutes. Following the second incubation, dihydrofolate reductase was added and the mixture was incubated an additional 5 minutes at 37°C. The reaction was initiated and monitored in the usual manner.

[4] = system: Rabbit antibody to thyroxine; test: Titration of antibody to thyroxine with the labeled conjugate, thiazoyl blue colorimetric read-out (Example 2B); type: binding; details: 40 µl Reagent 5 (conjugate), 10 minutes
Description: Thyroxine-free serum was prepared by treatment of pooled human serum with charcoal [Larsen et al, J. Clin. Endocrinol. Metab. 37:177(1973)]. All reagents except thyroxine-free serum or as otherwise indicated below were prepared in 0.1 M sodium phosphate buffer, pH 6.5, containing 0.3 M potassium chloride and 0.005% sodium azide. • Reagent 1 - Mixture of 6.5 ml of 10 mM 8-anilinonaphthalene sulfonic acid and 10 ml of thyroxine-free serum. • Reagent 2 - Mixture of 1.0 ml of bovine liver dihydrofolate reductase (0.152 units/ml) and 1.0 ml of 11 mM thiazoyl blue. • Reagent 3 - 0.114 mM dihydrofolate in 0.085 M sodium phosphate buffer, pH 6.2, 0.255 mM potassium chloride, and 0.043% sodium azide. • Reagent 4 - Rabbit antibody to thyroxine diluted 10-fold in buffer. • Reagent 5 - […] methotrexate-thyroxine conjugate (Part A above) in 10 mM sodium carbonate buffer, pH 9.5. • Reagent 6 - 10 mM NADPH in 10 mM sodium carbonate buffer, pH 9.5.
Various amounts of Reagent 4 (indicated in Table 4 below) were mixed with 40 µl of Reagent 5, 90 µl of Reagent 6, and sufficient buffer to make a final volume of 625 pl. Then 175 µl of Reagent 1 was added to each followed by 250 µl of buffer and the incubation was continued. After 10 minutes from the addition of Reagent 3, the absorbance at 560 nm was recorded for each reaction mixture and shown in Table 4.

Row | SMILES | ΔA340/20 Min ([1]; 25 μl of 0.16 μM conjugate in 2.0 ml final volume) | ΔA340/20 Min ([1]; 50 μl of 0.16 μM conjugate in 2.0 ml final volume) | ΔA340/20 Min ([1]; 100 μl of 0.16 μM conjugate in 2.0 ml final volume) | ΔA340/20 Min ([1]; 200 μl of 0.16 μM conjugate in 2.0 ml final volume) | inhibition of dihydrofolate reductase (verdict in words) ([1]; various concentrations of conjugate, Table 1) | ΔA340/20 Min ([2]; 10 µl antibody to thyroxine 1:9 dilution) | ΔA340/20 Min ([2]; 20 µl antibody to thyroxine 1:9 dilution) | ΔA340/20 Min ([2]; 40 µl antibody to thyroxine 1:9 dilution) | ΔA340/20 Min ([2]; 80 µl antibody to thyroxine 1:9 dilution) | ΔA340/20 Min ([2]; 160 µl antibody to thyroxine 1:9 dilution) | ΔA340/20 Min ([2]; no antibody, without conjugate and antibody 0.691) | ΔA340/20 Min ([3]; 30 µl antibody to thyroxine 1:4 dil, no thyroxine) | ΔA340/20 Min ([3]; no antibody, without conjugate 0.620) | Average Absorbance (560 nm) ([4]; 20 µl Reagent 4 (rabbit antibody diluted 10-fold)) | Average Absorbance (560 nm) ([4]; 40 µl Reagent 4 (rabbit antibody diluted 10-fold)) | Average Absorbance (560 nm) ([4]; 80 µl Reagent 4 (rabbit antibody diluted 10-fold)) | Average Absorbance (560 nm) ([4]; 160 µl Reagent 4 (rabbit antibody diluted 10-fold)) | Average Absorbance (560 nm) ([4]; 320 µl Reagent 4 (rabbit antibody diluted 10-fold)) | Average Absorbance (560 nm) ([4]; no antibody solution, thyroxine-free serum present)
1 | CN(Cc1cnc2nc(N)nc(N)c2n1)c1ccc(C(=O)NC(CCC(=O)NCCCCNC(Cc2cc(I)c(Oc3cc(I)c(O)c(I)c3)c(I)c2)C(=O)O)C(=O)O)cc1 (stereo not shown) [Methotrexate-Aminobutyl-Thyroxine, Methotrexate-aminobutylthyroxine Conjugate] | 0.566 | 0.495 | 0.433 | 0.306 | effective inhibitor | 0.579 | 0.602 | 0.664 | 0.656 | 0.667 | 0.499 | 0.645 | 0.458 | – | – | – | – | – | –
2 | CN(Cc1cnc2nc(N)nc(N)c2n1)c1ccc(C(=O)NC(CCC(=O)NC(Cc2cc(I)c(Oc3cc(I)c(O)c(I)c3)c(I)c2)C(=O)O)C(=O)O)cc1 (stereo not shown) [methotrexate-thyroxine conjugate, Methotrexate-thyroxine Conjugate] | – | – | – | – | – | – | – | – | – | – | – | – | – | 0.538 | 0.581 | 0.632 | 0.689 | 0.737 | 0.478
